Reference: a melting point compilation (Tetko et al.)

SMILES	melting point
CCCCOc1ccc(NC(=O)C(F)(F)C(F)(F)C(F)(F)C(F)(F)C(F)(F)C(F)(F)C(F)(F)C(F)(F)F)cc1	136 to 138 °C
CCNc1nc(Cl)nc(NCC(=O)OCC)n1	228 °C
FCCCl	-50 °C
O=[N+]([O-])c1cc2c(cc1CO)OCO2	123 °C
O=[N+]([O-])c1ccc2c(c1)CCN2S(=O)(=O)c1ccccc1	128 to 130 °C
O=C(O)COc1ccc(C(=O)c2cccs2)c(Cl)c1Cl	149 °C
O=[N+]([O-])c1cc(Cl)ccc1Br	70 °C
Sc1nnc(S)s1	161 to 165 °C
COc1ccc(C(=O)c2cccc(Br)c2)cc1OC	97 °C
Brc1cccc2cn[nH]c12	128 °C
OCCC1CCCCC1	-20 °C
O=Cc1csc2ccccc12	56 to 58 °C
ClCCI	-15.6 °C
C[Si](C)(C)O[Si](C)(C)C	-59 °C
CC(=O)Nc1ccc(S)cc1	149 to 154 °C
C[C@]12CC[C@H]3O[C@H]3[C@@H]1CC[C@@H]1[C@@H]2CC[C@]2(C)C(=O)CC[C@@H]12	158 °C
O=C1CN2CCOC2(c2ccccc2Cl)c2cc(Cl)ccc2N1 (stereo not drawn)	203 °C
CC1(C)OC(=O)C1(C)C	132 °C
O=C(OC1CCCCC1)c1ccccc1C(=O)OC1CCCCC1	66 °C
Cc1cc(C)c(CSCc2c(C)cc(C)cc2C)c(C)c1	145 to 146 °C
CCCCOc1cc(C(N)=O)ccc1OC	150 to 152 °C
CC12CCC(O)CC1=CCC1C2CCC2(C)C1CCC2(C)O (stereo not drawn)	206 °C
Cc1ccccc1N(C)C	-60 °C
CS(=O)(=O)c1nc(Br)c(C#N)c(-c2ccc(Cl)cc2)c1Cl	158 °C
N#C/C(=N/Nc1ccccc1Cl)c1nc(-c2ccccc2)cs1	160 °C

SMILES	melting point
Cc1cccc(Cl)c1C=O	37 °C
N#Cc1c(O)cccc1F	156 °C
Cn1c(S)nnc1-c1ccccc1	188 °C
COC(=O)c1sccc1S(=O)(=O)NC(=O)Nc1nc(C)nc(OC)n1	176 °C
Cc1ccc(-c2csc(/C(C#N)=N\Nc3cccc([N+](=O)[O-])c3)n2)cc1	225 °C
CCCCCOC(=O)CCC(=O)OCCCCC	-10.8 °C
CC(=O)OCC1=CC2CC(=O)C3=COC(OC4OC(CO)C(O)C(O)C4O)C1C32 (stereo not drawn)	128 °C
CC(C)(C)c1cc(C(C)(C)C)c(O)cc1O	120 to 121 °C
Cc1cc(C)c2c(c1)OC(=O)C2	105 °C
O=c1[nH]cc(Cl)cc1[N+](=O)[O-]	234 to 236 °C
CC1C(=O)C23C(O)CC4C(C)(C)CC(O)CC4(C)C2CCC1C3O (stereo not drawn)	377 °C
N#C/C(=N\Nc1cc(Cl)ccc1Cl)c1nc2ccccc2[nH]1	300 to 302 °C
C[C@@H]1C(=O)[C@H](C)[C@@H](c2ccc(Cl)cc2)O[C@H]1c1ccc(Cl)cc1	190 °C
COC(=O)C(C#N)=c1sc(=C(C#N)C(=O)OC)s1	235 to 250 °C
CC(C)NCCCC1(C(N)=O)c2ccccc2-c2ccccc21	94.5 °C
O=C(O)CN(CC(=O)O)CC(=O)O	245 °C
O=C(O)C(CCBr)(c1ccccc1)c1ccccc1	135 to 137 °C
CC1(C)OC2C(CO)OC(n3cnc4c(N)ncnc43)C2O1 (stereo not drawn)	221 to 222 °C
Cc1ccc(OCC(=O)O)cc1C	163 °C
C=CCn1c(S)nnc1CNC(=O)OC(C)(C)C	150 to 153 °C
CC1=NN(c2ccccc2)C(=O)/C1=C\c1ccccc1O	153 to 154 °C
Clc1ccccc1-c1ccccc1	34 °C
COC(=O)Cc1ccc(OCc2ccccc2)cc1	53 to 58 °C
COC(=O)C(Cc1ccccc1)NC(=O)C(N)CC(=O)O (stereo not drawn)	246 °C
CCCCc1c(C)nc(NCC)nc1OS(=O)(=O)N(C)C	50.5 °C

SMILES	melting point
Brc1ccc(OC2CCOCC2)nc1	96 to 98 °C
CC(C)Cc1ccc(C(=O)C(C)Br)cc1 (stereo not drawn)	63 to 64 °C
ClCc1c2ccccc2cc2ccccc12	140 °C
CCCCCCCCC(=O)OC1CCC2(C)C(=CCC3C2CCC2(C)C(C(C)CCCC(C)C)CCC32)C1 (stereo not drawn)	74 to 77 °C
CC1(C)OC(=O)C(=Cc2ccc(-c3ccc(Cl)cc3)o2)C(=O)O1	109 °C
Nc1nn2c(C(F)(F)F)cc(=O)[nH]c2c1/N=N/c1c(Cl)cc(Cl)cc1Cl	275 °C
CC1CCCCC1(C)C (stereo not drawn)	-29 °C
Cn1ncc2c(NCCNC3=CC(=O)c4ccccc4C3=O)ncnc21	257 °C
CCOC(=O)c1c(SC)nn(S(=O)(=O)c2ccc(C)cc2)c1N	151 to 153 °C
NC(Cc1ccc(O)c(O)c1)C(=O)O (stereo not drawn)	295 °C
Cc1ccc(C(=O)OC(C(=O)O)C(OC(=O)c2ccc(C)cc2)C(=O)O)cc1 (single isomer, unassigned; (+))	165 to 167 °C
CC(C)(C#N)C(C)(C)C#N	170 °C
OC12CC=CCC1(O)CC=CC2 (stereo not drawn)	83 °C
Cn1ccc(=O)c2ccccc21	152 °C
NC(=O)c1ccc(Cl)cc1Cl	192 °C
CC(C)(C)OC(=O)C(C(=O)Cc1ccccc1)c1ccccc1 (stereo not drawn)	82.2 to 83.5 °C
CC1(C)CNC(=NN=C(C=Cc2ccc(C(F)(F)F)cc2)C=Cc2ccc(C(F)(F)F)cc2)NC1	188 °C
Cc1cccc(C)c1NC(=O)C(C)N (stereo not drawn)	256 °C
CC(CCc1ccccc1)NC(C)C(O)c1ccc(O)cc1 (stereo not drawn)	112 °C
CCCCCCCCCCC(Br)C(=O)O (stereo not drawn)	32 °C
FC(F)(F)c1cc(Br)ccc1Br	49 °C
CCc1ssc(=O)c1-c1ccccc1	82 °C
O=C1c2ccc(O)c(O)c2C(=O)c2ccc(O)c(O)c21	340 °C
CCc1ccc(-c2ccccc2)cc1	35 °C
COc1ccc(C(=O)Oc2ccc(/C=C/C(=O)c3ccccc3)cc2)cc1	156 °C

SMILES	melting point
Cc1cc(C)c(N=C=S)c(C)c1	63 to 64 °C
COc1cc2c(c(OC)c1OC)-c1ccc(O)c(=O)cc1C(NC(C)=O)CC2 (stereo not drawn)	178 °C
N[C@H](CCO)C(=O)O	205 °C
O=S(=O)(Cl)c1c(Cl)sc(Cl)c1Br	69 °C
O=Cc1c(Cl)ccc(Cl)c1Cl	86 to 89 °C
O=C(O)CCSCSCCC(=O)O	138 to 140 °C
S=C(Nc1ccccc1)c1ccccc1	102 °C
O=Cc1ccc(-c2ccc(C(F)(F)F)cc2Cl)o1	86 to 87 °C
C=CC1(C)OC(=O)N(c2cc(Cl)cc(Cl)c2)C1=O (stereo not drawn)	108 °C
CN1CCC(N2CCNCC2)CC1	31 °C
O=Cc1ccc(-c2ccc(-c3cccs3)s2)s1	133 to 135 °C
CC(/C=C(\C)c1ccc(-c2ccccc2)cc1)=NNc1ccc([N+](=O)[O-])cc1[N+](=O)[O-]	200 to 201 °C
CCNc1ccc([N+](=O)[O-])cc1[N+](=O)[O-]	108 to 119 °C
CC(C)CCOc1ccc(NC(=S)Nc2ccc(OCCC(C)C)cc2)cc1	146 °C
O=C(O)CCSC=Cc1ccccc1	117 to 120 °C
Cn1c(=O)c(C2=NNC(=O)C2=NNc2c(Br)cc([N+](=O)[O-])cc2[N+](=O)[O-])c(O)c2ccccc21	192 °C
Fc1cc(CBr)ccc1Cl	32 °C
Cc1ccc2[nH]c(C)cc2c1	115 °C
CCN(CC)C(=O)Cl	-32 °C
COP(=O)(OC)SCn1c(=O)oc2cc(Cl)cnc21	89 °C
CC(=O)NCc1ccccc1C(c1ccc(C)o1)c1ccc(C)o1	65 °C
O=C(O)COc1ccc2ccccc2c1	156 °C
Clc1cccc(Cl)c1-c1nnn[nH]1	203 °C
O=C(O)c1ccccc1C(=O)Nc1cccc2ccccc12	185 °C
O=C(NCCCCCCO)OCC1c2ccccc2-c2ccccc21	119 to 120 °C

SMILES	melting point
NNc1c(Cl)cc(Cl)cc1Cl	142 °C
Cc1c(C(=O)CBr)sc2ccccc12	98 to 99 °C
CCOc1c(Nc2ccc(C(=O)O)cc2)c(=O)c1=O	300 °C
C=C1[C@@H](c2ccccc2)[C@]2(Cl)C(=O)N(C)C(=O)[C@]12Cl	134 °C
O=C1Nc2ccccc2C1=Nn1c(S)nnc1C(F)(F)F	300 °C
CCCCCCCC1CCCC(=O)O1 (stereo not drawn)	-12 °C
NNc1c(F)cc(F)cc1F	99 °C
COc1ccccc1N1CCN(CC(N)=S)CC1	130 to 132 °C
O=[N+]([O-])c1cc(Cl)c(Cl)cc1Cl	57.5 °C
O=C(O)C1=CC(=C(c2ccc(O)c(C(=O)O)c2)c2ccc(O)c(C(=O)O)c2)C=CC1=O	300 °C
O=C(Nc1ccccc1C#CC#Cc1ccccc1NC(=O)c1ccccc1)c1ccccc1	211 °C
NNC(=O)c1csc(-c2ccccc2)n1	137 to 138 °C
CC(=O)Nc1ncc([N+](=O)[O-])s1	264 °C
CC(=O)Nc1cc(NC(C)=O)c(C=Cc2ccccc2)cc1C=Cc1ccccc1	224 °C
c1ccc(-c2cnco2)cc1	37 to 39 °C
O=C(Oc1cccc(N=[N+]([O-])c2cccc(OC(=O)c3ccccc3)c2)c1)c1ccccc1	175 °C
CC(C)(C)C(=O)C(=O)O	90.5 °C
C=Cc1ccc(C)cc1	-34 °C
O=Cc1ccc2nsnc2c1	90 to 92 °C
O=[N+]([O-])c1cc(C(F)F)c(Nc2ncc(C(F)(F)F)cc2Cl)c([N+](=O)[O-])c1	90 °C
N#C/C(=N/Nc1cc(Cl)c(Cl)cc1Cl)c1nc2ccccc2c(=O)[nH]1	149 °C
FC(F)(F)C(F)(F)C(F)(F)C(F)(F)OC(F)(F)C(F)(F)C(F)(F)C(F)(F)F	-100 °C
Cc1ccc2cc3nc(C)ccc3cc2n1	237 to 238 °C
